Measurements taken from PubChem BioAssay AID1996.
In brackets after ≈: the same amount, converted by molar mass.

Details: buffer; pH 7.4; 200.0 µM

Structure (SMILES) | solubility kinetic [µg/mL]
O=C(CNS(=O)(=O)c1ccc(F)c(Cl)c1)NCCc1ccccc1 | 5.1 (≈ 13.8 µM)
O=[N+]([O-])c1cccc(C(=NCc2ccccc2)NO)c1 | > 40.7
Cc1nc(N2CCCCC2)c2c(-c3cccs3)csc2n1 | 2.3 (≈ 7.29 µM)
Cc1cc2c(cc1S(=O)(=O)N1CCOCC1)NC(=O)CO2 | > 46.9
COc1ccc2c(c1)c1ncn(CC3CCCO3)c(=O)c1n2C (centres undefined) | 38.6 (≈ 123 µM)
N#Cc1ccccc1Oc1ccccc1C=O | 31.6 (≈ 142 µM)
O=C(NCCCNC(=O)c1c(F)cccc1F)c1c(F)cccc1F | > 53.1
Br.CC1CN2C(c3ccc(Cl)cc3)=CSC2=N1 (centres undefined) | > 49.7
COc1ccc2nc(C(F)(F)Cl)c(C#N)c(N)c2c1 | 3.8 (≈ 13.4 µM)
O=C(NCCCN1CCCC1=O)Nc1cc(Cl)ccc1Cl | > 49.5
O=C(O)CNC(=S)N(Cc1ccccc1)Cc1ccccc1F | 47.4 (≈ 143 µM)
CCCC(=O)Nc1nc(-c2ccc(Cl)s2)cs1 | 1.5 (≈ 5.23 µM)
CC(=O)NCCC(=O)Nc1nc(-c2ccc3c(c2)OCCO3)cs1 | 13.6 (≈ 39.1 µM)
N#Cc1c(-c2ccccc2)cc(-c2ccccc2)[nH]c1=O | 0.6 (≈ 2.2 µM)
CC(C)[C@H](NC(=O)NCc1ccc(F)cc1)C(=O)O | > 40.2
Cc1noc(NS(=O)(=O)c2ccc(N)cc2)c1C | > 40.1
O=C(N/C(=C\c1ccco1)C(=O)N1CCCCC1)c1ccc([N+](=O)[O-])cc1 | 3.6 (≈ 9.75 µM)
CCOC(=O)C(=CNc1ccc(S(N)(=O)=O)cc1)C(=O)OCC | 37.8 (≈ 110 µM)
Cc1nc([N+](=O)[O-])cn1CC(O)c1ccccc1 (centres undefined) | > 37.1
CCOC(=O)C1CCCN(C(=O)CSc2nc(C)cc(C)n2)C1 (centres undefined) | 41.5 (≈ 123 µM)

Structure (SMILES) | solubility kinetic [µg/mL]
O=C(COC(=O)c1c(Cl)cccc1Cl)NC1CCCCCCC1 | 8.2 (≈ 22.9 µM)
CCC(C)Nc1nc2c(c(=O)[nH]c(=O)n2C)n1CCOc1ccccc1 (centres undefined) | 19.8 (≈ 55.4 µM)
COc1ccccc1/C=C/C1NC(=O)NC(C)=C1C(=O)OC(C)C (centres undefined) | 0.4 (≈ 1.21 µM)
Cc1ccc(-n2nc(C(=O)O)cc2-c2ccccc2Cl)cc1 | > 46.9
CCC1CCCCN1C(=O)NC(=O)c1ccccc1 (centres undefined) | > 39.1
COC(=O)c1ccccc1NC(=O)c1cc[n+]([O-])cc1 | 36.2 (≈ 133 µM)
CCC(OC(=O)c1nsc(Cl)c1Cl)C(=O)NCCOC (centres undefined) | > 51.2
CCCCCCC(O)(CCN1CCCCC1)c1ccccc1.Cl (centres undefined) | 49.3
CN(CC(=O)O)S(=O)(=O)c1ccc2c(c1)n(C)c(=O)c(=O)n2C | > 51.2
COCCCNc1nc(N)c([N+](=O)[O-])c(Nc2cc(OC)ccc2OC)n1 | < 0.1
Cc1cnc(NC(=O)c2ccncc2)s1 | 30.2 (≈ 138 µM)
CCC(Oc1ccccc1OC)C(=O)N1CC(=O)Nc2ccccc21 (centres undefined) | 43 (≈ 126 µM)
O=c1[nH]c(=S)[nH]c2nc(-c3cccs3)cc(C(F)(F)F)c12 | 4.8 (≈ 14.6 µM)
Cc1ccc(Nc2ncnc3sccc23)c(C)c1 | > 38.3
Nc1ccc2nc(-c3ccccc3)c(-c3ccccc3)nc2c1 | 25.7 (≈ 86.4 µM)
O=C(O)CCN1C(=O)C2C3c4ccccc4C(c4ccccc43)[C@@H]2C1=O (some centres undefined) | 46.8 (≈ 135 µM)
CCC(C)[C@H](NC(=O)NC1CCCc2ccccc21)C(=O)OC (some centres undefined) | 22 (≈ 69.1 µM)
COC(=O)c1ccc(N=CC2=C(O)CC(c3ccccc3)CC2=O)cc1 (centres undefined) | 2.1 (≈ 6.01 µM)
Cc1ccccc1-c1nc(C#N)c(N2CCCCC2)o1 | 1.8 (≈ 6.73 µM)
CC(C)CCNc1nc(N)c([N+](=O)[O-])c(N2CCCCCC2)n1 | 0.5 (≈ 1.55 µM)

Structure (SMILES) | solubility kinetic [µg/mL]
CCOC(=O)c1sc(NC(=O)c2c(CC)noc2C)nc1C | > 48.5
O=c1[nH]c(CSc2cccc[n+]2[O-])nc2ccccc12 | > 42.8
Cc1ccc2c(=O)cc(C(=O)NC3CCS(=O)(=O)C3)oc2c1 (centres undefined) | > 48.2
CSc1ccc(/C=C/C(=O)NC(=O)c2ccccc2O)cc1 | 3.9 (≈ 12.4 µM)
O/N=C/c1ccc2ccccc2n1 | > 25.8
O=C(Nc1ccncc1)c1cc(S(=O)(=O)N2CCCC2)ccc1Cl | > 54.9
CCOc1ccc(NC(=O)c2ccccc2SC)cc1 | 2.4 (≈ 8.35 µM)
CC(=O)NC(Cc1c[nH]c2ccccc12)C(=O)NCCc1ccccn1 (centres undefined) | > 52.6
CCOc1ccccc1C(=O)NCC(=O)O | > 33.5
CC(=O)c1cccc(NC(=O)COC(=O)CCNS(=O)(=O)c2ccccc2)c1 | > 60.7
O=C(COC(=O)c1ccc(O)cc1O)Nc1ccc(Cl)cn1 | 46.5 (≈ 144 µM)
Nc1cccc(Oc2ccc3c(c2)C(=O)N(CC2CCCO2)C3=O)c1 (centres undefined) | 41.4 (≈ 122 µM)
Cc1c(Cl)cccc1NC(=S)NCCc1ccc(Cl)cc1 | 0.4 (≈ 1.18 µM)
COc1ccc2oc(C(=O)OCC(=O)Nc3ccc(C(=O)N(C)C)cc3)c(C)c2c1 | 58.7 (≈ 143 µM)
O=C(c1cccc(F)c1)N1CCC(c2nc3ccccc3s2)CC1 | > 51.1
CCN(CC)CC#CC(OC)(c1ccccc1)c1ccccc1.Cl | 29.5
COC(=O)CCC(=O)Nc1cccc([N+](=O)[O-])c1 | > 37.8
CC(C)N1CCN(C2CSCCSC2)CC1CCO (centres undefined) | 42.7 (≈ 140 µM)
Cc1ccc(C)c(NC(=O)C2CCCN2C(=O)NC2CCCCC2)c1 (centres undefined) | 29 (≈ 84.4 µM)
